{"source": "paper PMC11637191", "about": "“The pH-dependence of efflux ratios determined with bidirectional transport assays across cellular monolayers” (International Journal of Pharmaceutics: X, 2024)", "key": {"MDCK-MDR1 cells [1]": {"test_system": "MDCK-MDR1 cells", "details": "MDCK-MDR1, pH 7.4"}, "MDCK-MDR1 cells [2]": {"test_system": "MDCK-MDR1 cells", "details": "cited from earlier work"}, "[3]": {"experiment": "Measurement of paracellular transport (Ppara) in MDCK-MDR1 cells with and without P-gp inhibitors", "type": "in vitro ADME, canine", "details": "dog; for Papp: MDCK-MDR1, with elacridar 2 µM", "from_the_text": "(§1) In initial fits, we used experimentally obtained values for Ppara , determined by measuring the Papp of the relevant compound at a pH value where paracellular transport was expected to dominate. Since the compounds in this study are P-gp substrates, elacridar was also used to inhibit P-gp. Under these conditions, the measured Papp is expected to be a measure of Ppara . […]\n(§2) X Measurement of paracellular transport […]\n(§3) assess its relative contribution to overall flux, it is necessary to quantify paracellular transport in some way. An approximation of paracellular transport can be mathematically calculated as desc ribed in […]\n(§4) and cell type can influence and complicate the predictions, leading to uncertainties. H owever, it can also be experimentally measured provided that it can be assured that the P app would be dominated by the contribution of P para . […]\n(§5) compounds. In order to ensure paracellular dominance, 2 µM elacridar was used to inhibit potential P-gp facilitated efflux, and the transport buffer was set to a pH that would severely restrict the neutral […]\n(§6) Table S13: P app values and measured logP para for basic and acidic marker compounds. P app values are the mean of three timepoints per replicate, for a total of three replicates (n = 3) ± standard […]\n(§7) Compound pH Papp, A⟶B logP para Recovery fn\n(§8) In light of the uncertainties in predicting P para , it was presumed more apt to measure P para for each compound individually in parallel with the pH dependence experiments. As described in Section 4.3 of the main text, experiments were initially performed for each tested compound with inhibitor and appropriate pH values (similar to those performed for Table S12) in an attempt to ensure the dominance of paracellular transport. These values could then be used as a direct measure for P para for each compound that could be fed to the model for its individual fit. […]\n(§9) affecting P para and/or the measurement of it, we measured the P app of more commonly-used markers for paracellular transport with and without inhibitor. The transport of these rather hydrophilic compounds is known to be dominated by the paracellular route. Furthermore, for our MDCK- MDR1 […]\n(§10) efflux is not expected to play a role. As such, the addition of inhibitor in this case is purely to evaluate if the P app changes when it is present."}, "[4]": {"details": "determined 25 °C; etoposide acidic, acebutolol basic; ref Avdeef, 2012; cited from earlier work"}, "in vitro": {"experiment": "in vitro", "details": "dog"}, "P-gp (MDR1) [5]": {"test_system": "P-gp (MDR1)", "experiment": "in vitro", "details": "dog"}, "[6]": {"experiment": "Calculation of neutral fraction (fn)"}, "MDCK-MDR1 cells [7]": {"test_system": "MDCK-MDR1 cells", "experiment": "Comparison of Papp,B-A with and without inhibitor in MDCK-MDR1 cells (own and literature data)"}, "P-gp (MDR1) [8]": {"test_system": "P-gp (MDR1)", "experiment": "Comparison of Papp,B-A with and without inhibitor in MDCK-MDR1 cells (own and literature data)", "details": "dog, This study, varying pH with the iso-method"}, "P-gp (MDR1) [9]": {"test_system": "P-gp (MDR1)", "experiment": "Measurement of paracellular transport (Ppara) in MDCK-MDR1 cells with and without P-gp inhibitors", "type": "in vitro ADME, canine", "details": "dog, pH 7.4, one replicate", "from_the_text": "as §1, §2, §3, §4, §5, §6, §7, §8, §9, §10"}}, "note": "Several values for one entry are separate records, joined by “and”; a condition that tells them apart may be missing. Equal entries are not always repeated. Where two headings read alike, the source gives them in different places."}
{"smiles": "CC(C)N(CCC(c1ccccc1)c1cc(CO)ccc1O)C(C)C", "note": "(centres unmarked) [5-Hydroxymethyl Tolterodine]", "values": [{"measurement": "Factor difference", "setting": "MDCK-MDR1 cells [1]", "value": 6}, {"measurement": "Papp, B⟶A", "setting": "MDCK-MDR1 cells [2]; MDCK-MDR1, pH 7.4", "value": 63, "unit": "×10⁻⁶ cm/s"}, {"measurement": "Papp, inhibitor", "setting": "MDCK-MDR1 cells [2]; MDCK-MDR1, pH 7.4", "value": 11, "unit": "×10⁻⁶ cm/s"}]}
{"smiles": "CCCC(=O)Nc1ccc(OCC(O)CNC(C)C)c(C(C)=O)c1", "note": "(centres unmarked) [Acebutolol]", "values": [{"measurement": "recovery", "setting": "[3]; MDCK-MDR1, pH 5, with elacridar 2 µM, + 2 µM elacridar, pH 5, n = 3 (Table S13)", "value": 100, "unit": "%"}, {"measurement": "Papp", "setting": "[3]; + 2 µM elacridar, pH 5, three replicates (n = 3) (Table S13)", "value": "0.6 ± 0.2", "unit": "×10⁻⁶ cm/s"}, {"measurement": "pKa", "setting": "[4]", "value": 9.18}, {"measurement": "recovery", "setting": "in vitro; MDCK-MDR1, pH 5", "value": "90 to 106", "unit": "%"}, {"measurement": "recovery", "setting": "in vitro; MDCK-MDR1, pH 6", "value": "88 to 120", "unit": "%"}, {"measurement": "recovery", "setting": "in vitro; MDCK-MDR1, pH 7", "value": "88 to 102", "unit": "%"}, {"measurement": "recovery", "setting": "in vitro; MDCK-MDR1, pH 8", "value": "78 to 83", "unit": "%"}, {"measurement": "recovery", "setting": "in vitro; MDCK-MDR1, pH 9", "value": "72 to 79", "unit": "%"}, {"measurement": "Papp", "setting": "P-gp (MDR1) [5]; MDCK-MDR1, pH 5", "value": "0.31 ± 0.11", "unit": "×10⁻⁶ cm/s"}, {"measurement": "Papp B→A", "setting": "P-gp (MDR1) [5]; MDCK-MDR1, pH 5", "value": "0.28 ± 0.05", "unit": "×10⁻⁶ cm/s"}, {"measurement": "Papp", "setting": "P-gp (MDR1) [5]; MDCK-MDR1, pH 6", "value": "0.1 ± 0.02", "unit": "×10⁻⁶ cm/s"}, {"measurement": "Papp B→A", "setting": "P-gp (MDR1) [5]; MDCK-MDR1, pH 6", "value": "0.47 ± 0.07", "unit": "×10⁻⁶ cm/s"}, {"measurement": "Papp", "setting": "P-gp (MDR1) [5]; MDCK-MDR1, pH 7", "value": "0.18 ± 0.02", "unit": "×10⁻⁶ cm/s"}, {"measurement": "Papp B→A", "setting": "P-gp (MDR1) [5]; MDCK-MDR1, pH 7", "value": "2.92 ± 1.12", "unit": "×10⁻⁶ cm/s"}, {"measurement": "Papp", "setting": "P-gp (MDR1) [5]; MDCK-MDR1, pH 8", "value": "0.61 ± 0.28", "unit": "×10⁻⁶ cm/s"}, {"measurement": "Papp B→A", "setting": "P-gp (MDR1) [5]; MDCK-MDR1, pH 8", "value": "16.7 ± 2.4", "unit": "×10⁻⁶ cm/s"}, {"measurement": "Papp", "setting": "P-gp (MDR1) [5]; MDCK-MDR1, pH 9", "value": "7.41 ± 3.04", "unit": "×10⁻⁶ cm/s"}, {"measurement": "Papp B→A", "setting": "P-gp (MDR1) [5]; MDCK-MDR1, pH 9", "value": "38.5 ± 8.5", "unit": "×10⁻⁶ cm/s"}, {"measurement": "Papp, inhibitor", "setting": "MDCK-MDR1 cells [2]; with inhibitor, pH 7.4 iso-method, ref Troutman and Thakker (2003)", "value": 3.73, "unit": "×10⁻⁶ cm/s"}, {"measurement": "Papp, B⟶A", "setting": "MDCK-MDR1 cells [2]; without inhibitor, pH 7.4 iso-method, ref Troutman and Thakker (2003)", "value": 17.2, "unit": "×10⁻⁶ cm/s"}, {"measurement": "fn", "setting": "[6]; neutral fraction at pH 5", "value": 0.0, "unit": "%"}, {"measurement": "fn", "setting": "[6]; neutral fraction at pH 8", "value": 6, "unit": "%"}, {"measurement": "Factor difference", "setting": "MDCK-MDR1 cells [7]; This study, Papp,B⟶A vs Papp with inhibitor, varying pH with the iso-method", "value": "3 and 5"}, {"measurement": "Papp, inhibitor", "setting": "MDCK-MDR1 cells [7]; This study, with inhibitor, varying pH with the iso-method", "value": 3.16, "unit": "×10⁻⁶ cm/s"}, {"measurement": "Papp, B⟶A", "setting": "MDCK-MDR1 cells [7]; This study, without inhibitor, varying pH with the iso-method", "value": 16.7, "unit": "×10⁻⁶ cm/s"}, {"measurement": "Factor difference", "setting": "MDCK-MDR1 cells [7]; calculated from literature Papp,B⟶A and Papp with inhibitor, pH 7.4 iso-method", "value": 5}, {"measurement": "Papp", "setting": "P-gp (MDR1) [8]; MDCK-MDR1, Papp, B⟶A, without inhibitor", "value": 16.7, "unit": "×10⁻⁶ cm/s"}, {"measurement": "Papp", "setting": "P-gp (MDR1) [8]; MDCK-MDR1, pH 8, with P-gp inhibitor (elacridar 2 µM in this study's P0 assays), Papp, inhibitor, with inhibitor", "value": 5.03, "unit": "×10⁻⁶ cm/s"}]}
{"smiles": "NS(=O)(=O)c1cc2c(cc1Cl)N=CNS2(=O)=O", "note": "[Chlorothiazide]", "values": [{"measurement": "recovery", "setting": "[3]; MDCK-MDR1, pH 7.4, A⟶B, no inhibitor, pH 7.4", "value": 125, "unit": "%"}, {"measurement": "recovery", "setting": "[3]; MDCK-MDR1, pH 7.4, B⟶A, no inhibitor, pH 7.4", "value": 104, "unit": "%"}, {"measurement": "recovery", "setting": "[3]; MDCK-MDR1, pH 7.4, with cyclosporin A 10 µM, A⟶B + cyclosporin-A, pH 7.4", "value": 108, "unit": "%"}, {"measurement": "recovery", "setting": "[3]; MDCK-MDR1, pH 7.4, with elacridar 2 µM, A⟶B + elacridar, pH 7.4", "value": 100, "unit": "%"}, {"measurement": "recovery", "setting": "[3]; MDCK-MDR1, pH 7.4, with verapamil 100 µM, A⟶B + verapamil, pH 7.4", "value": 96, "unit": "%"}, {"measurement": "recovery", "setting": "[3]; MDCK-MDR1, pH 9, with elacridar 2 µM, + 2 µM elacridar, pH 9, n = 3 (Table S13)", "value": 105, "unit": "%"}, {"measurement": "Papp", "setting": "[3]; + 2 µM elacridar, pH 9, three replicates (n = 3) (Table S13)", "value": "1.7 ± 0.7", "unit": "×10⁻⁶ cm/s"}, {"measurement": "Papp", "setting": "P-gp (MDR1) [9]; MDCK-MDR1, with cyclosporin A 10 µM, A → B + cyclosporin-A (10 μM)", "value": 0.7, "unit": "×10⁻⁶ cm/s"}, {"measurement": "Papp", "setting": "P-gp (MDR1) [9]; MDCK-MDR1, with elacridar 2 µM, A → B + elacridar (2 μM)", "value": 0.9, "unit": "×10⁻⁶ cm/s"}, {"measurement": "Papp", "setting": "P-gp (MDR1) [9]; MDCK-MDR1, with verapamil 100 µM, A → B + verapamil (100 μM)", "value": "1.4 ± 0.1", "unit": "×10⁻⁶ cm/s"}, {"measurement": "Papp", "setting": "P-gp (MDR1) [9]; MDCK-MDR1, A → B, no inhibitor", "value": 0.2, "unit": "×10⁻⁶ cm/s"}, {"measurement": "fn", "setting": "[6]; neutral fraction at pH 7.4", "value": 16.5, "unit": "%"}, {"measurement": "fn", "setting": "[6]; neutral fraction at pH 9", "value": 0.8, "unit": "%"}]}
